Results taken from ChEMBL document CHEMBL4808219, “Exploration of Benzo[b]carbazole-6,11-diones as anticancer agents: Synthesis and studies of hTopoIIα inhibition and apoptotic effects” (Bioorg Med Chem Lett, 2021).
Active and inactive are the calls of the source. No cut-off for these calls is given here.

Experiments:
MDA-MB-231 [1] = test: Induction of apoptosis in human MDA-MB-231 cells assessed as necrotic cells at IC50 by Annexin V/FITC-propidium iodide staining-based flow cytometric method (reference value: 4.5 +/- 0.5 %); assay type: functional
MDA-MB-231 [2] = test: Cytotoxicity against human MDA-MB-231 cells assessed as reduction in cell survival by clonogenic assay; assay type: functional, cell-based
MDA-MB-231 [3] = test: Induction of apoptosis in human MDA-MB-231cells assessed as downregulation of Bcl-xl level by measuring fold change in Bcl-xl expression by Western blot analysis relative to control; assay type: functional
MCF-10A = test: Cytotoxicity against human MCF-10A cells; assay type: cell-based
[4] = Upregulation of p53 protein expression in human MDA-MB-231cells assessed as fold change in p53 expression at IC50 after 48 hrs by Western blot analysis relative to control; assay type: functional
MDA-MB-231 [5] = test: Induction of apoptosis in human MDA-MB-231 cells assessed as viable cells at IC50 by Annexin V/FITC-propidium iodide staining-based flow cytometric method (reference value: 87.2 +/- 0.7 %); assay type: functional
[6] = Downregulation of cyclinB1 protein expression in human MDA-MB-231cells assessed as fold change in cyclin B1 expression at IC50 after 48 hrs by Western blot analysis relative to control; assay type: functional
MDA-MB-231 [7] = test: Cytotoxicity against human MDA-MB-231 cells assessed as normal nuclei at 2 uM by DAPI staining based fluorescence microscopic analysis (reference value: 85.71 to 95.83%); assay type: functional
MCF7 = test: Cytotoxicity against human MCF7 cells assessed as reduction in cell viability incubated for 48 hrs by MTT assay; assay type: functional, cell-based; conditions: Homo sapiens, MCF7, 48 h; read-out: IC50
[8] = Downregulation of Cdc25A protein expression in human MDA-MB-231cells assessed as fold change in Cdc25A expression at IC50 after 48 hrs by Western blot analysis relative to control; assay type: functional
MDA-MB-231 [9] = test: Cell cycle arrest in human MDA-MB-231 cells assessed as accumulation at sub G1 phase at IC50 measured after 48 hrs by propidium iodide staining based FACS analysis (reference value: 0.7+/-0.2 %); assay type: functional
HEK-293T = test: Cytotoxicity against human HEK293T cells assessed as reduction in cell viability incubated for 48 hrs by MTT assay; assay type: cell-based
MDA-MB-231 [10] = test: Cytotoxicity against human MDA-MB-231 cells assessed as reduction in cell viability incubated for 48 hrs by MTT assay; assay type: functional, cell-based; conditions: Homo sapiens, MDA-MB-231, 48 h; read-out: IC50
MDA-MB-231 [11] = test: Induction of apoptosis in human MDA-MB-231 cells assessed as late apoptotic cells at IC50 by Annexin V/FITC-propidium iodide staining-based flow cytometric method (reference value: 1.2 +/- 0.3 %); assay type: functional
MDA-MB-231 [12] = test: Cell cycle arrest in human MDA-MB-231 cells assessed as accumulation at G2/M phase at IC50 measured after 48 hrs by propidium iodide staining based FACS analysis (reference value: 30.8+/-1.6 %); assay type: functional
MDA-MB-231 [13] = test: Cytotoxicity against human MDA-MB-231 cells assessed as normal nuclei at 2.5 uM by DAPI staining based fluorescence microscopic analysis (reference value: 85.71 to 88.89%); assay type: functional
MDA-MB-231 [14] = test: Cytotoxicity against human MDA-MB-231 cells assessed as apoptotic nuclei at 1 uM by DAPI staining based fluorescence microscopic analysis (reference value: 4.17 to 14.29%); assay type: functional
MDA-MB-231 [15] = test: Induction of apoptosis in human MDA-MB-231cells as increase in cleaved PARP1 level by measuring fold change in cleaved PARP1 expression by Western blot analysis relative to control; assay type: functional
MDA-MB-231 [16] = test: Cytotoxicity against human MDA-MB-231 cells assessed as apoptotic nuclei at 2.5 uM by DAPI staining based fluorescence microscopic analysis (reference value: 11.11 to 14.29%); assay type: functional
MDA-MB-231 [17] = test: Cytotoxicity against human MDA-MB-231 cells assessed as normal nuclei at 0.5 uM by DAPI staining based fluorescence microscopic analysis (reference value: 85.71 to 88.89%); assay type: functional
MDA-MB-231 [18] = test: Cytotoxicity against human MDA-MB-231 cells assessed as apoptotic nuclei at 0.5 uM by DAPI staining based fluorescence microscopic analysis (reference value: 11.11 to 14.29%); assay type: functional
MDA-MB-231 [19] = test: Cytotoxicity against human MDA-MB-231 cells assessed as increase in deformation and shrinkage of nuclei by DAPI staining-based fluorescence microscopic analysis; assay type: functional, cell-based; conditions: dose 0.5-2.5 µM
[20] = Upregulation of p21 protein expression in human MDA-MB-231cells assessed as fold change in p21 expression at IC50 after 48 hrs by Western blot analysis relative to control; assay type: functional
MDA-MB-231 [21] = test: Genotoxicity in human MDA-MB-231 cells assessed as induction of DNA damage at 2 uM incubated for 24 hrs by comet assay; assay type: functional, cell-based
[22] = Cytotoxicity against human H357 cells assessed as reduction in cell viability incubated for 48 hrs by MTT assay; assay type: functional, cell-based; conditions: Homo sapiens, H357, 48 h; read-out: IC50
[23] = Downregulation of CDC6 protein expression in human MDA-MB-231cells assessed as fold change in CDC6 expression at IC50 after 48 hrs by Western blot analysis relative to control; assay type: functional
MDA-MB-231 [24] = test: Cytotoxicity against human MDA-MB-231 cells assessed as normal nuclei at 1.5 uM by DAPI staining based fluorescence microscopic analysis (reference value: 85.71 to 88.89%); assay type: functional
MDA-MB-231 [25] = test: Induction of apoptosis in human MDA-MB-231 cells assessed as upregulation of Bax level by measuring fold change in Bax expression by Western blot analysis relative to control; assay type: functional
[26] = Downregulation of NFkappaB protein expression in human MDA-MB-231cells assessed as fold change in NF-kB expression at IC50 after 48 hrs by Western blot analysis relative to control; assay type: functional
MDA-MB-231 [27] = test: Cytotoxicity against human MDA-MB-231 cells assessed as apoptotic nuclei at 2 uM by DAPI staining based fluorescence microscopic analysis (reference value: 4.17 to 14.29%); assay type: functional
[28] = Upregulation of cyclinD1 protein expression in human MDA-MB-231cells assessed as fold change in cyclin D1 expression at IC50 after 48 hrs by Western blot analysis relative to control; assay type: functional
MDA-MB-231 [29] = test: Induction of apoptosis in human MDA-MB-231 cells assessed as early apoptotic cells at IC50 by Annexin V/FITC-propidium iodide staining-based flow cytometric method (reference value: 7.1 +/- 0.4 %); assay type: functional
MDA-MB-231 [30] = test: Cell cycle arrest in human MDA-MB-231 cells assessed as accumulation at S phase at IC50 measured after 48 hrs by propidium iodide staining based FACS analysis (reference value: 9.2+/-0.3 %); assay type: functional
MDA-MB-231 [31] = test: Cell cycle arrest in human MDA-MB-231 cells assessed as accumulation at G1 phase at IC50 measured after 48 hrs by propidium iodide staining based FACS analysis (reference value: 59.3+/-2.9 %); assay type: functional
MDA-MB-231 [32] = test: Cytotoxicity against human MDA-MB-231 cells assessed as apoptotic nuclei at 1.5 uM by DAPI staining based fluorescence microscopic analysis (reference value: 11.11 to 14.29%); assay type: functional
MDA-MB-231 [33] = test: Cytotoxicity against human MDA-MB-231 cells assessed as normal nuclei at 1 uM by DAPI staining based fluorescence microscopic analysis (reference value: 85.71 to 95.83%); assay type: functional
MDA-MB-231 [34] = test: Cytotoxicity against human MDA-MB-231 cells assessed as apoptotic nuclei at 3 uM by DAPI staining based fluorescence microscopic analysis (reference value: 4.17 to 6.67%); assay type: functional
MDA-MB-231 [35] = test: Cytotoxicity against human MDA-MB-231 cells assessed as normal nuclei at 3 uM by DAPI staining based fluorescence microscopic analysis (reference value: 93.33 to 95.83%); assay type: functional
MDA-MB-231 [36] = test: Cytotoxicity against human MDA-MB-231 cells assessed as apoptotic nuclei at 5 uM by DAPI staining based fluorescence microscopic analysis (reference value: 4.17 to 6.67%); assay type: functional
MDA-MB-231 [37] = test: Genotoxicity in human MDA-MB-231 cells assessed as induction of DNA damage at 3 uM incubated for 24 hrs by comet assay; assay type: functional, cell-based
MDA-MB-231 [38] = test: Cytotoxicity against human MDA-MB-231 cells assessed as normal nuclei at 5 uM by DAPI staining based fluorescence microscopic analysis (reference value: 93.33 to 95.83%); assay type: functional
MDA-MB-231 [39] = test: Cytotoxicity against human MDA-MB-231 cells assessed as normal nuclei at 4 uM by DAPI staining based fluorescence microscopic analysis (reference value: 93.33 to 95.83%); assay type: functional
MDA-MB-231 [40] = test: Cytotoxicity against human MDA-MB-231 cells assessed as apoptotic nuclei at 4 uM by DAPI staining based fluorescence microscopic analysis (reference value: 4.17 to 6.67%); assay type: functional

| SMILES | Activity (MDA-MB-231 [1]) | IC50 (MDA-MB-231 [2]) | fold change (FC) (MDA-MB-231 [3]) | IC50 (MCF-10A) | fold change (FC) [4] | Activity (MDA-MB-231 [5]) | fold change (FC) [6] | Activity (MDA-MB-231 [7]) | IC50 (MCF7) | fold change (FC) [8] | Activity (MDA-MB-231 [9]) | IC50 (HEK-293T) | IC50 (MDA-MB-231 [10]) | Activity (MDA-MB-231 [14]) | fold change (FC) (MDA-MB-231 [15]) | Activity (MDA-MB-231 [19]) | IC50 [22] | fold change (FC) (MDA-MB-231 [25]) | Activity (MDA-MB-231 [27]) | Activity (MDA-MB-231 [33]) | other results |
| --- | --- | --- | --- | --- | --- | --- | --- | --- | --- | --- | --- | --- | --- | --- | --- | --- | --- | --- | --- | --- | --- |
| COc1cccc(NC2=CC(=O)c3ccccc3C2=O)c1 | 18.5% | 1.5 µM | 0.6 | 90 µM | 2.1 | 50.1% | 0.3 | 45.45% | 2 µM | 0.4 | 11.8% | 4.5 µM | 2.1 µM | 36.11% | 0.3 | Dose-Dependent Effect | 2.1 µM | 1.6 | 54.55% | 63.89% | Activity (MDA-MB-231 [11]): 5.3%; Activity (MDA-MB-231 [12]): 23.3%; Activity (MDA-MB-231 [13]): 19.05%; Activity (MDA-MB-231 [16]): 80.95%; Activity (MDA-MB-231 [17]): 82.05%; Activity (MDA-MB-231 [18]): 17.95%; fold change (FC) [20]: 2.1; Activity (MDA-MB-231 [21]): Active; fold change (FC) [23]: 0.4; Activity (MDA-MB-231 [24]): 51.28%; fold change (FC) [26]: 0.7; fold change (FC) [28]: 1.8; Activity (MDA-MB-231 [29]): 26.1%; Activity (MDA-MB-231 [30]): 20.2%; Activity (MDA-MB-231 [31]): 44.7%; Activity (MDA-MB-231 [32]): 48.72% |
| O=C1c2cccc(O)c2C(=O)c2c1[nH]c1ccccc21 | – | 2.7 µM | 0.2 | 105 µM | – | – | – | 63.64% | 3 µM | – | – | 4 µM | 3.2 µM | 25.93% | 1 | Dose-Dependent Effect | 3.6 µM | 2.2 | 36.36% | 74.07% | Activity (MDA-MB-231 [34]): 48.48%; Activity (MDA-MB-231 [35]): 51.52%; Activity (MDA-MB-231 [36]): 73.33%; Activity (MDA-MB-231 [37]): Active; Activity (MDA-MB-231 [38]): 26.67%; Activity (MDA-MB-231 [39]): 44.44%; Activity (MDA-MB-231 [40]): 55.56% |
| O=C1C=C(Nc2cccc3ccccc23)C(=O)c2ccccc21 | – | 2.4 µM | 0.4 | 101 µM | – | – | – | 71.43% | 3.1 µM | – | – | 5.6 µM | 3.2 µM | 11.9% | 0.8 | Dose-Dependent Effect | 5.8 µM | 2.3 | 28.57% | 88.1% | Activity (MDA-MB-231 [34]): 55.56%; Activity (MDA-MB-231 [35]): 44.44%; Activity (MDA-MB-231 [36]): 88.89%; Activity (MDA-MB-231 [37]): Active; Activity (MDA-MB-231 [38]): 11.11%; Activity (MDA-MB-231 [39]): 25.64%; Activity (MDA-MB-231 [40]): 74.36% |
| CN(C1=CC(=O)c2ccccc2C1=O)c1ccccc1 | 20.7% | 1.2 µM | 0.8 | 86 µM | 2.5 | 52.2% | 0.4 | 43.59% | 1.5 µM | 0.3 | 7.9% | 3.5 µM | 2 µM | 27.78% | 0.9 | Dose-Dependent Effect | 2 µM | 2.5 | 56.41% | 72.22% | Activity (MDA-MB-231 [11]): 4.8%; Activity (MDA-MB-231 [12]): 24.6%; Activity (MDA-MB-231 [13]): 21.43%; Activity (MDA-MB-231 [16]): 78.57%; Activity (MDA-MB-231 [17]): 83.33%; Activity (MDA-MB-231 [18]): 16.67%; fold change (FC) [20]: 2.3; Activity (MDA-MB-231 [21]): Active; fold change (FC) [23]: 0.5; Activity (MDA-MB-231 [24]): 69.23%; fold change (FC) [26]: 0.7; fold change (FC) [28]: 1.5; Activity (MDA-MB-231 [29]): 22.3%; Activity (MDA-MB-231 [30]): 27.1%; Activity (MDA-MB-231 [31]): 40.4%; Activity (MDA-MB-231 [32]): 30.77% |
